Data: patent EP0246786A1, “N-1 subsituted sulfonylaminocarbonyl, C-4 substituted monobactams” (THE UPJOHN COMPANY, priority 1986, dated 1987)
Values after ≈ are worked out from the molar mass of the structure shown. Structures can show the parent of a compound that is named as a salt. Where two headings read alike, the source gives them in different places.

What was measured:
Assay in all cases: MIC by agar dilution (in vitro antimicrobial testing)
Type in all cases: cell-based
E. coli = conditions: Escherichia coli, 20 h, 35°C, read-out: Minimum Inhibitory Concentration
Procedure: (§1) Compounds of the invention are tested for in vitro antimicrobial activity using standard testing procedures such as the determination of minimum inhibitory concentration (MIC) by agar dilution as described in "Methods for Dilution Antimicrobial Susceptibility Tests for Bacteria That Grow Aerobically" (MF-T) Published January 1983 by the National Committee for Clinical Laboratory Standards, 771 East Lancaster Avenue, Villanova, PA 19084. Briefly, MIC values are determined in unsupple- mented Mueller Hinton Agar (MHA). The compounds tested are diluted serially into molten MHA at 47°C. The agar is poured into petri dishes and allowed to harden. The various bacteria used for testing are grown overnight on MHA at 35°C and transferred to Tryptiease Soy Broth (TSB) until a turbidity of 0.5 McFarland standard is obtained. The bacteria are diluted one to twenty in TSB and inoculated on the plates (1 µl using a Steers replicator).

K.pneumoniae = conditions: Klebsiella pneumoniae, read-out: Minimum Inhibitory Concentration
Procedure: as §1

K. oxytoca = conditions: Klebsiella oxytoca, read-out: Minimum Inhibitory Concentration
Procedure: as §1

Ps. aeruginosa = conditions: Pseudomonas aeruginosa, 20 h, 35°C, read-out: Minimum Inhibitory Concentration
Procedure: as §1

[1] = E. coli Culture No. 9379, Mueller Hinton Agar
[2] = E. coli Culture No. 9380, Mueller Hinton Agar
[3] = E. coli Culture No. 9451, Mueller Hinton Agar
[4] = Ps. aeruginosa Culture No. 231, Mueller Hinton Agar
[5] = Ps. aeruginosa Culture No. 6432, Mueller Hinton Agar
[6] = Ps. aeruginosa Culture No. 9191, Mueller Hinton Agar

In the case of COC(=O)OC[C@@H]1[C@H](NC(=O)/C(=N\OCC(=O)O)c2csc(N)n2)C(=O)N1C(=O)NS(=O)(=O)N1CCN(NC(=O)c2cc(=O)c(O)c[nH]2)C1=O (racemic) [Compound A, cis-(±)-3-[2-(2-Amino-4-thiazolyl)-(Z)-2-(carboxy-methoxyimino)acetamido]-1-[(5-hydroxy-4-pyridon-2-yl)carbonylamino-1-(2-imidazolidone-3-yl)sulfonylaminocarbonyl]-4-[(methoxycarbonyl)-oxymethyl]-2-azetidinone, dipotassium salt], the MIC (E. coli; [1]) was at most 0.015 µg/mL, the MIC (E. coli; [2]) was at most 0.015 µg/mL and the MIC (E. coli; [3]) was at most 0.015 µg/mL. The MIC (K.pneumoniae; K.pneumoniae Culture No. 58, Mueller Hinton Agar, 35°C, 20 hours) was 1 µg/mL, the MIC (K. oxytoca; K. oxytoca Culture No. 9384, Mueller Hinton Agar, 35°C, 20 hours) was 0.06 µg/mL and the MIC (Ps. aeruginosa; [4]) was 4 µg/mL. It also gave an MIC (Ps. aeruginosa; [5]) of 1 µg/mL and an MIC (Ps. aeruginosa; [6]) of 4 µg/mL.
CC1C(NC(=O)C(=NOC(C)(C)C(=O)O)c2csc(N)n2)C(=O)N1S(=O)(=O)O (stereo not shown) [Compound B, 2-[[[1-(2-amino-4-thiazolyl)-2-[(2-methyl-4-oxo-1-sulfo-3-azetidinyl)amino]-2-oxoethylidene]amino]oxy]-2-methylpropanoic acid] was tested, and the MIC (E. coli; [1]) was 0.03 µg/mL (≈ 0.0689 µM), the MIC (E. coli; [2]) was 0.06 µg/mL (≈ 0.138 µM) and the MIC (E. coli; [3]) was 0.06 µg/mL (≈ 0.138 µM). For the same compound, the MIC (K.pneumoniae; 20 h) was 0.03 µg/mL (≈ 0.0689 µM), the MIC (K. oxytoca; 20 h) was 0.03 µg/mL (≈ 0.0689 µM) and the MIC (Ps. aeruginosa; [4]) was 8 µg/mL (≈ 18.4 µM). For the same compound, the MIC (Ps. aeruginosa; [5]) was 8 µg/mL (≈ 18.4 µM) and the MIC (Ps. aeruginosa; [6]) was 2 µg/mL (≈ 4.59 µM).
